Measured values taken from patent US9587266B2, “Mutant luciferases” (University of Massachusetts, priority 2011, dated 2017).
Several values for one entry are separate records, joined by “and”; a condition that tells them apart may be missing. Identical values can stand only once. Like-named read-outs stand apart in the source and are kept apart here.

Tests used:
Format in all cases: biochemical
WT luciferase [1] = target: T1, WT luciferase (Photinus pyralis, UniProt P08659); experiment: Titration assay with purified protein
T1 construct: The full firefly (Photinus pyralis) luciferase gene was PCR amplified from pGL3 (Promega); GST (N, cleaved yes); made in house; host or cells: E. coli JM109
Description: (§1) The PCR product was cloned into the BamH1 and NotI sites of pGEX6P-1 for bacterial expression. Mutant proteins were created using the Quickchange site-directed mutagenesis kit (Stratagene). Saturating mutagenesis was performed using the used the degenerate codon NNK at sites predicted to impact or alter substrate biding including F247, T251, L286, S347, R337, R218, Q338, Y340, A313, and I351 using the degenerate codon NNK. The point mutants S347A, L286A, A348G, E311A, I351A, A313G, R337A, H245A and L342A were made independently.
(§2) Luminescence assays in 96-well plates were initiated by adding 30 μL 2× substrate in 20 mM Tris pH 7.6, 0.1 mM EDTA, 8 mM MgSO4, 4 mM ATP, and 1 mM TCEP to 30 μL of 20 nM purified luciferase in 20 mM Tris pH 7.6, 0.1 mM EDTA, 1 mM TCEP and 0.4 mg/mL BSA. Titration assays were performed 3 minutes post-substrate addition in a Turner Veritas luminometer with final substrate concentrations ranging from 0.122-250 μM or 0.244-500 μM.

[2] = target: T2, S347A/L286M double mutant luciferase (Photinus pyralis, UniProt P08659, L286M/S347A); experiment: Titration assay with purified protein; conditions: sustained light emission
T2 construct: The full firefly (Photinus pyralis) luciferase gene was PCR amplified from pGL3 (Promega); GST (N, cleaved yes); made in house; host or cells: E. coli JM109
Description: as §1, §2

T251S mutant luciferase = target: T3, T251S mutant luciferase (Photinus pyralis, UniProt P08659, T251S); experiment: Titration assay with purified protein
T3 construct: The full firefly (Photinus pyralis) luciferase gene was PCR amplified from pGL3 (Promega); GST (N, cleaved yes); made in house; host or cells: E. coli JM109
Description: as §1, with “NNK.” for “NNK. The point mutants S347A, L286A, A348G, E311A, I351A, A313G, R337A, H245A and L342A were made independently.”
(§3) Luminescence assays in 96-well plates were initiated by adding 30 μL 2× substrate in 20 mM Tris pH 7.6, 0.1 mM EDTA, 8 mM MgSO4, 4 mM ATP, and 1 mM TCEP to 30 μL of 20 nM purified luciferase in 20 mM Tris pH 7.6, 0.1 mM EDTA, 1 mM TCEP and 0.4 mg/mL BSA.

L286M mutant luciferase = target: T4, L286M mutant luciferase (Photinus pyralis, UniProt P08659, L286M); experiment: Titration assay with purified protein
T4 construct: The full firefly (Photinus pyralis) luciferase gene was PCR amplified from pGL3 (Promega); GST (N, cleaved yes); made in house; host or cells: E. coli JM109
Description: as §1, with “NNK.” for “NNK. The point mutants S347A, L286A, A348G, E311A, I351A, A313G, R337A, H245A and L342A were made independently.”
as §3

R218K mutant luciferase = target: T5, R218K mutant luciferase (Photinus pyralis, UniProt P08659, R218K)
T5 construct: The full firefly (Photinus pyralis) luciferase gene was PCR amplified from pGL3 (Promega); GST (N, cleaved yes); made in house; host or cells: E. coli JM109
Description: as §1, with “NNK.” for “NNK. The point mutants S347A, L286A, A348G, E311A, I351A, A313G, R337A, H245A and L342A were made independently.”
as §3

S347A mutant luciferase = target: T6, S347A mutant luciferase (Photinus pyralis, UniProt P08659, S347A); conditions: purified protein
T6 construct: The full firefly (Photinus pyralis) luciferase gene was PCR amplified from pGL3 (Promega); GST (N, cleaved yes); made in house; host or cells: E. coli JM109
Description: as §1, with “NNK.” for “NNK. The point mutants S347A, L286A, A348G, E311A, I351A, A313G, R337A, H245A and L342A were made independently.”
as §3

WT luciferase [3] = target: T1, WT luciferase
Description: (§4) Purified mutant luciferases were used in bioluminescence emission and burst kinetics scans. Each purified protein in 20 mM Tris pH 7.6, 0.1 mM EDTA, 1 mM TCEP and 0.4 mg/mL BSA was added to 2× substrate in 20 mM Tris pH 7.6, 0.1 mM EDTA, 8 mM MgSO4, 4 mM ATP, and 1 mM TCEP in a cuvette.
(§5) Luciferase was rapidly injected into a cuvette containing substrate, and the emission from 400-800 nm was recorded in a SPEX FluoroMax-3 fluorimeter with closed excitation slits.

R218K + L342A luciferase = target: T7, R218K + L342A luciferase (Photinus pyralis, UniProt P08659, L342A/R218K)
T7 construct: The full firefly (Photinus pyralis) luciferase gene was PCR amplified from pGL3 (Promega); GST (N, cleaved yes); made in house; host or cells: E. coli JM109
Description: as §4, §5

R218K luciferase = target: T8, R218K luciferase (Photinus pyralis, UniProt P08659, R218K); experiment: Bioluminescence emission scan
T8 construct: The full firefly (Photinus pyralis) luciferase gene was PCR amplified from pGL3 (Promega); GST (N, cleaved yes); made in house; host or cells: E. coli JM109
Description: (§6) Purified mutant luciferases were used in bioluminescence emission and burst kinetics scans.
as §5

L286Y luciferase = target: T9, L286Y luciferase (Photinus pyralis, UniProt P08659, L286Y); experiment: Bioluminescence emission scan
T9 construct: The full firefly (Photinus pyralis) luciferase gene was PCR amplified from pGL3 (Promega); GST (N, cleaved yes); made in house; host or cells: E. coli JM109
Description: as §6, §5

T251S luciferase = target: T10, T251S luciferase (Photinus pyralis, UniProt P08659, T251S); experiment: Bioluminescence emission scan
T10 construct: The full firefly (Photinus pyralis) luciferase gene was PCR amplified from pGL3 (Promega); GST (N, cleaved yes); made in house; host or cells: E. coli JM109
Description: as §6, §5

S347A luciferase = target: T11, S347A luciferase (Photinus pyralis, UniProt P08659, S347A); experiment: Bioluminescence emission scan
T11 construct: The full firefly (Photinus pyralis) luciferase gene was PCR amplified from pGL3 (Promega); GST (N, cleaved yes); made in house; host or cells: E. coli JM109
Description: as §6, §5

S347T luciferase = target: T12, S347T luciferase (Photinus pyralis, UniProt P08659, S347T); experiment: Bioluminescence emission scan
T12 construct: The full firefly (Photinus pyralis) luciferase gene was PCR amplified from pGL3 (Promega); GST (N, cleaved yes); made in house; host or cells: E. coli JM109
Description: as §6, §5

T251Q luciferase = target: T13, T251Q luciferase (Photinus pyralis, UniProt P08659, T251Q); experiment: Bioluminescence emission scan
T13 construct: The full firefly (Photinus pyralis) luciferase gene was PCR amplified from pGL3 (Promega); GST (N, cleaved yes); made in house; host or cells: E. coli JM109
Description: as §6, §5

F247A luciferase = target: T14, F247A luciferase (Photinus pyralis, UniProt P08659, F247A); experiment: Bioluminescence emission scan
T14 construct: The full firefly (Photinus pyralis) luciferase gene was PCR amplified from pGL3 (Promega); GST (N, cleaved yes); made in house; host or cells: E. coli JM109
Description: as §6, §5

I351A luciferase = target: T15, I351A luciferase (Photinus pyralis, UniProt P08659, I351A); experiment: Bioluminescence emission scan
T15 construct: The full firefly (Photinus pyralis) luciferase gene was PCR amplified from pGL3 (Promega); GST (N, cleaved yes); made in house; host or cells: E. coli JM109
Description: as §6, §5

L286M + S347A luciferase = target: T16, L286M + S347A luciferase (Photinus pyralis, UniProt P08659, L286M/S347A); experiment: Bioluminescence emission scan
T16 construct: The full firefly (Photinus pyralis) luciferase gene was PCR amplified from pGL3 (Promega); GST (N, cleaved yes); made in house; host or cells: E. coli JM109
Description: as §6, §5

F247S luciferase = target: T17, F247S luciferase (Photinus pyralis, UniProt P08659, F247S); experiment: Bioluminescence emission scan
T17 construct: The full firefly (Photinus pyralis) luciferase gene was PCR amplified from pGL3 (Promega); GST (N, cleaved yes); made in house; host or cells: E. coli JM109
Description: as §6, §5

T251N luciferase = target: T18, T251N luciferase (Photinus pyralis, UniProt P08659, T251N); experiment: Bioluminescence emission scan
T18 construct: The full firefly (Photinus pyralis) luciferase gene was PCR amplified from pGL3 (Promega); GST (N, cleaved yes); made in house; host or cells: E. coli JM109
Description: as §6, §5

L342A luciferase = target: T19, L342A luciferase (Photinus pyralis, UniProt P08659, L342A); experiment: Bioluminescence emission scan
T19 construct: The full firefly (Photinus pyralis) luciferase gene was PCR amplified from pGL3 (Promega); GST (N, cleaved yes); made in house; host or cells: E. coli JM109
Description: as §6, §5

F247L L286M luciferase = target: T20, F247L L286M luciferase (Photinus pyralis, UniProt P08659, F247L/L286M); experiment: Bioluminescence emission scan
T20 construct: The full firefly (Photinus pyralis) luciferase gene was PCR amplified from pGL3 (Promega); GST (N, cleaved yes); made in house; host or cells: E. coli JM109
Description: as §6, §5

T251S L286M luciferase = target: T21, T251S L286M luciferase (Photinus pyralis, UniProt P08659, L286M/T251S); experiment: Bioluminescence emission scan
T21 construct: The full firefly (Photinus pyralis) luciferase gene was PCR amplified from pGL3 (Promega); GST (N, cleaved yes); made in house; host or cells: E. coli JM109
Description: as §6, §5

[4] = 3 minutes post-substrate addition, read-out: Apparent Km

T1 sequence (P08659 whole entry): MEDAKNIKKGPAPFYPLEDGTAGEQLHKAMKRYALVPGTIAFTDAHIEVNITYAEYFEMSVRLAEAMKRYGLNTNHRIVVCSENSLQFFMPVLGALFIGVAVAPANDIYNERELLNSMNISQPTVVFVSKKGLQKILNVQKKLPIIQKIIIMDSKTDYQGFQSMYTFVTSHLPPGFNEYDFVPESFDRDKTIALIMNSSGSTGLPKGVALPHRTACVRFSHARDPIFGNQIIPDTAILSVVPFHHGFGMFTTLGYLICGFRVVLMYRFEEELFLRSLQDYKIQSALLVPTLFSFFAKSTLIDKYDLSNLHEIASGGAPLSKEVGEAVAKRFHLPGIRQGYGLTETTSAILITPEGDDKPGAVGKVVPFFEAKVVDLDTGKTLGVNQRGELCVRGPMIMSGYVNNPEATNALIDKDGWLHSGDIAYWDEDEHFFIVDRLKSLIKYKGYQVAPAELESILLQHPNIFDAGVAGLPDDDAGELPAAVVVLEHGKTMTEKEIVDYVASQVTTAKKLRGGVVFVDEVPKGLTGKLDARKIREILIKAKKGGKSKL
T5 sequence (P08659 whole entry R218K): as the sequence (P08659 whole entry) above, with R218K counted along it
T8 sequence (P08659 whole entry R218K): as the sequence (P08659 whole entry) above, with R218K counted along it
T3 sequence (P08659 whole entry T251S): as the sequence (P08659 whole entry) above, with T251S counted along it
T4 sequence (P08659 whole entry L286M): as the sequence (P08659 whole entry) above, with L286M counted along it
T6 sequence (P08659 whole entry S347A): as the sequence (P08659 whole entry) above, with S347A counted along it
T13 sequence (P08659 whole entry T251Q): as the sequence (P08659 whole entry) above, with T251Q counted along it
T7 sequence (P08659 whole entry R218K/L342A): as the sequence (P08659 whole entry) above, with R218K, L342A counted along it
T21 sequence (P08659 whole entry T251S/L286M): as the sequence (P08659 whole entry) above, with T251S, L286M counted along it
T17 sequence (P08659 whole entry F247S): as the sequence (P08659 whole entry) above, with F247S counted along it
T14 sequence (P08659 whole entry F247A): as the sequence (P08659 whole entry) above, with F247A counted along it
T9 sequence (P08659 whole entry L286Y): as the sequence (P08659 whole entry) above, with L286Y counted along it
T15 sequence (P08659 whole entry I351A): as the sequence (P08659 whole entry) above, with I351A counted along it
T12 sequence (P08659 whole entry S347T): as the sequence (P08659 whole entry) above, with S347T counted along it
T19 sequence (P08659 whole entry L342A): as the sequence (P08659 whole entry) above, with L342A counted along it
T18 sequence (P08659 whole entry T251N): as the sequence (P08659 whole entry) above, with T251N counted along it
T16 sequence (P08659 whole entry L286M/S347A): as the sequence (P08659 whole entry) above, with L286M, S347A counted along it
T2 sequence (P08659 whole entry L286M/S347A): as the sequence (P08659 whole entry) above, with L286M, S347A counted along it
T10 sequence (P08659 whole entry T251S): as the sequence (P08659 whole entry) above, with T251S counted along it
T20 sequence (P08659 whole entry F247L/L286M): as the sequence (P08659 whole entry) above, with F247L, L286M counted along it
T11 sequence (P08659 whole entry S347A): as the sequence (P08659 whole entry) above, with S347A counted along it

O=C(O)[C@H]1CSC(c2nc3cc4c(cc3s2)NCC4)=N1 [CycLuc1]
Apparent Vmax (WT luciferase [1]): 9.7 ± 0.1 ×10^−5 cps
Km (WT luciferase [1]; [4]): 0.1 ± 0.01 µM
Vmax higher than wt [2]: 20 fold
Apparent Vmax (T251S mutant luciferase): 90 ± 0.9 ×10^−5 cps
Km (T251S mutant luciferase; [4]): 1.83 ± 0.09 µM
Apparent Vmax (L286M mutant luciferase): 60 ± 0.7 ×10^−5 cps
Km (L286M mutant luciferase; [4]): 0.46 ± 0.03 µM
Apparent Vmax (R218K mutant luciferase; R218K luciferase, purified protein): 134 ± 1.9 ×10^−5 cps
Km (R218K mutant luciferase; R218K luciferase, purified protein, 3 minutes post-substrate addition, read-out: Apparent Km): 1.8 µM and 1.79 µM
maximal sustained light emission as % of that of D-luciferin with WT luciferase (R218K mutant luciferase; R218K mutant): 12.5%
improvement in the maximal sustained emission (R218K mutant luciferase; R218K mutant relative to wild-type luciferase): 14 fold
Apparent Vmax (S347A mutant luciferase): 135 ± 0.8 ×10^−5 cps
Km (S347A mutant luciferase; [4]): 2.68 ± 0.07 µM
Wavelength at Max. Emission (WT luciferase [3]; Table 2): 601 nm
Maximum Emission Wavelength of Selected Substrate (WT luciferase [3]; Table 3): 601 nm
Maximum Emission Wavelength of Selected Substrate (R218K + L342A luciferase): 604 nm
Maximum Emission Wavelength of Selected Substrate (R218K luciferase): 609 nm
Maximum Emission Wavelength of Selected Substrate (R218K luciferase; listed as Cyc1): 605 nm
Wavelength at Max. Emission (L286Y luciferase): 604 nm
Wavelength at Max. Emission (T251S luciferase): 602 nm
Wavelength at Max. Emission (S347A luciferase): 597 nm
Wavelength at Max. Emission (S347T luciferase): 601 nm
Wavelength at Max. Emission (T251Q luciferase): 612 nm
Wavelength at Max. Emission (F247A luciferase): 605 nm
Wavelength at Max. Emission (I351A luciferase): 604 nm
Maximum Emission Wavelength of Selected Substrate (L286M + S347A luciferase): 595 nm
Wavelength at Max. Emission (F247S luciferase): 607 nm
Wavelength at Max. Emission (T251N luciferase): 604 nm
Maximum Emission Wavelength of Selected Substrate (L342A luciferase): 597 nm
Wavelength at Max. Emission (F247L L286M luciferase): 603 nm
Wavelength at Max. Emission (T251S L286M luciferase): 601 nm
